Source: US20200375943A1 (priority 2019, published 2020)
Like-named read-outs stand apart in the source and are kept apart here.

Assays:
SVCT2 [1] = target: T1, SVCT2 (Homo sapiens, UniProt Q9UGH3); parameters: endogenous in cells; host or cells: HTR-8/SVneo human trophoblast cell line; settings: cited from earlier work; for uptake of LAA via SVCT2: trophoblast cells; for inhibitory action for LAA transporter SVCT2: HTR-8/SVneo cells
Target sequence in this assay (Q9UGH3 whole entry): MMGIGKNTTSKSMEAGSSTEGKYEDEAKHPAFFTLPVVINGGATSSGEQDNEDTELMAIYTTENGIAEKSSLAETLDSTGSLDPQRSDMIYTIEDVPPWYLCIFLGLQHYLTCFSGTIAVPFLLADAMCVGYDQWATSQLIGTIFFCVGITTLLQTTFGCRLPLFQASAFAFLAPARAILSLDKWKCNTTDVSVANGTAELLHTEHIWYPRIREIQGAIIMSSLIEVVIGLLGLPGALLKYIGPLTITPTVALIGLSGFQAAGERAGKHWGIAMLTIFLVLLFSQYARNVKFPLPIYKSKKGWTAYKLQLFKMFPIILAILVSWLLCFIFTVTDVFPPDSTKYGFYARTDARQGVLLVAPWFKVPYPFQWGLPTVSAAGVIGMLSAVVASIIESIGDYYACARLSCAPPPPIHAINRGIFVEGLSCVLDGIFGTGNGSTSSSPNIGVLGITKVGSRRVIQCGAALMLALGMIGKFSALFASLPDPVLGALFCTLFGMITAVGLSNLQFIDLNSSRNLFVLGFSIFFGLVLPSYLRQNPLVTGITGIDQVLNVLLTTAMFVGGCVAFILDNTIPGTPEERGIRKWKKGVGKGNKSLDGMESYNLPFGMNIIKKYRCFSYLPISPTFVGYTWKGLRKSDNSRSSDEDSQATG

SVCT1(h) = target: T2, SVCT1(h) (Homo sapiens, UniProt Q9UHI7); settings: 50 uM, ascorbate 10-400 uM; cited from earlier work
T2 construct: expressed in transfected cells
T2 sequence (Q9UHI7 whole entry): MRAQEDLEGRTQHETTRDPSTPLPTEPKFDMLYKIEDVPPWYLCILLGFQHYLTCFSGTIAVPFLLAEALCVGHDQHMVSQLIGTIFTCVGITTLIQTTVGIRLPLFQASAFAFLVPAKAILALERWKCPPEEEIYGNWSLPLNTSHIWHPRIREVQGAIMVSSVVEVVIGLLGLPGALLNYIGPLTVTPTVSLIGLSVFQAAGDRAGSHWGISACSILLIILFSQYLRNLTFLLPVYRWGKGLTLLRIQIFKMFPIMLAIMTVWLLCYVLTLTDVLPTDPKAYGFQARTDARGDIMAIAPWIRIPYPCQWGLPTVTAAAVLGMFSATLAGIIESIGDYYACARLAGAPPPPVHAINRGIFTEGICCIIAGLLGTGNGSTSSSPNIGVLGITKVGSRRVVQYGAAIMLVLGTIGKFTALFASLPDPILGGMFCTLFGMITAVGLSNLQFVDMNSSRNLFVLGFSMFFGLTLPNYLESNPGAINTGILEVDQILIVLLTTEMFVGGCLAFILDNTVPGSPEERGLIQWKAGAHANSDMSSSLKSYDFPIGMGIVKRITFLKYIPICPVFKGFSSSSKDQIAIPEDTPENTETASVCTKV

SVCT2 [2] = settings: 200 uM, cortical or cerebellar neurons; cited from earlier work
[3] = humans, oral; cited from earlier work
SVCT2 [4] = target: T1, SVCT2; parameters: endogenous in cells; host or cells: bone marrow stromal cells (BMSCs); settings: 600 uM, BMSCs; cited from earlier work
Target sequence in this assay (Q9UGH3 whole entry, species assumed): as the sequence (Q9UGH3 whole entry) above

human leukemic cells = settings: bone marrows from 259 patients; cited from earlier work
[5] = cited from earlier work
leukemic blast cells = assay: Phase I/II clinical trial of LAA depletion alternating with LAA supplementation; format: in vivo, human
Description: No. 12, Blood. 2000 (see Reference 9).
That is, in the example, a leukemia patient first received a chemotherapy and subsequently received the LAA supplementation. […] The noted sharp decline is much more precipitous than what can be observed with chemotherapy.
In the example, the significant improvement is also noted that there was a total of 8 out of 16 patients in the Phase I/II clinical trial responding (p=0.007).

sarcoma tumors = settings: oral gavage, cited from earlier work

## COc1ccc2c(c1)c(CC(=O)O)c(C)n2C(=O)c1ccc(Cl)cc1 [indomethacin]
SVCT2 [1]
  uptake of LAA via SVCT2: inhibit the uptake of LAA

## O=c1c(O)c(-c2ccc(O)c(O)c2)oc2cc(O)cc(O)c12 [quercetin]
SVCT2 [1]
  inhibitory action for LAA transporter SVCT2: very strong inhibitory action
SVCT1(h)
  inhibition of LAA transporter SVCT1(h): about 80%
SVCT2 [2]
  decrease of LAA transport SVCT2: 80%
[3]
  dose administered orally without side effects: 4 g

## Cl.N=c1c[n+](N2CCOCC2)[n-]o1 [SIN-1, 3-(4-Morpholinyl) sydnonimine hydrochloride]
SVCT2 [4]
  decrease in LAA uptake: up to 40%

## O=C1O[C@H]([C@@H](O)CO)C(O)=C1O [LAA, L-ascorbic acid]
Human leukemic cells
  patients whose leukemic cells had the requirement of LAA for growth: ~50%
[5]; intravenous infusion
  peak concentrations without significant adverse effects: over 10 mMol
[5]; oral, up to 180 gram per day in divided doses
  blood levels: ≤ 200 µM
Leukemic blast cells; LAA supplementation after chemotherapy (FIG. 3B)
  D-dimer test for massive cell lysis: sharp increase
Leukemic blast cells; Phase I/II clinical trial, 16 evaluated patients, p=0.007
  patients responding: 8 out of 16
Leukemic blast cells; after 10 days of LAA supplementation, relapse after cytotoxic chemotherapy (FIG. 3A)
  leukemic blast cells in peripheral blood: sharp decline
Leukemic blast cells; alternation of LAA supplementation and depletion, same patient (FIG. 2B)
  frequency of platelet transfusion: marked reduction in the frequency of platelet transfusion
Leukemic blast cells; during supplementation of LAA phase, intravenous, one patient (FIG. 2A)
  leukemic blast cell number (peripheral blood and bone marrow): decline in leukemic blast cell number
Leukemic blast cells; during supplementation of LAA phase, one patient (FIG. 2A)
  spleen size: decline in spleen size
Sarcoma tumors; 0.3 mg/kg/day, up to 24 weeks
  complete tumor regression, animals: 55%
Sarcoma tumors; 10 mg/kg/day
  tumor growth: tumor inhibition but no regression
Sarcoma tumors; 1 g/kg/day
  tumor growth: grew without sign of retardation

## C[C@]12CC[C@@H]3c4ccc(O)cc4CC[C@H]3[C@@H]1CC[C@@H]2O [17β-estadiol]
SVCT2 [1]
  inhibitory action for LAA transporter SVCT2: very strong inhibitory action

## O=c1c(-c2ccc(O)cc2)coc2cc(O)cc(O)c12 [genistein]
SVCT2 [1]
  inhibitory action for LAA transporter SVCT2: very strong inhibitory action

## O=C(O)Cc1ccccc1Nc1c(Cl)cccc1Cl [diclofenac]
SVCT2 [1]
  inhibitory action for LAA transporter SVCT2: very strong inhibitory action
  uptake of LAA via SVCT2: inhibit the uptake of LAA
